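Compound exposure: 48 hours, 5 concentrations, 96-well plates. GI50: concentration for 50% inhibition of growth. The concentration for full growth arrest is given as TGI.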
What was measured:
Assay in all cases: NCI tumour cell line growth inhibition, 48 h
SF-295 CNS = tested on: SF-295 CNS
SK-MEL-2 melanoma = tested on: SK-MEL-2 melanoma
HL-60(TB) leukemia = tested on: HL-60(TB) leukemia
SK-OV-3 ovarian = tested on: SK-OV-3 ovarian
786-0 renal = tested on: 786-0 renal
U251 CNS = tested on: U251 CNS
NCI-H460 lung = tested on: NCI-H460 lung
NCI-H23 lung = tested on: NCI-H23 lung
UACC-257 melanoma = tested on: UACC-257 melanoma
MDA-MB-231 breast = tested on: MDA-MB-231 breast

Row | Compound | TGI (SF-295 CNS) [µM] | TGI (SK-MEL-2 melanoma) [µM] | TGI (HL-60(TB) leukemia) [µM] | TGI (SK-OV-3 ovarian) [µM] | TGI (786-0 renal) [µM] | TGI (U251 CNS) [µM] | TGI (NCI-H460 lung) [µM] | TGI (NCI-H23 lung) [µM] | TGI (UACC-257 melanoma) [µM] | GI50 (SF-295 CNS) [µM] | GI50 (SK-MEL-2 melanoma) [µM] | GI50 (SK-OV-3 ovarian) [µM] | GI50 (786-0 renal) [µM] | GI50 (U251 CNS) [µM] | GI50 (NCI-H460 lung) [µM] | GI50 (NCI-H23 lung) [µM] | GI50 (UACC-257 melanoma) [µM] | GI50 (MDA-MB-231 breast) [µM] | TGI (MDA-MB-231 breast) [µM] | GI50 (HL-60(TB) leukemia) [µM]
1 | N#CCC(=O)Nc1cccc(C(F)(F)F)c1 | > 100 | > 100 | > 100 | > 100 | > 100 | > 100 | > 100 | > 100 | > 100 |  |  |  |  |  |  |  |  |  |  | 
2 | COc1ccc2c(c1)/C(=C\c1c(C)nc3sc(C)cn13)C(=O)N2C | 6.88 | > 100 |  | 7.18 | > 100 | 31.2 | 36.6 | 35.3 | > 100 | 2.25 | 9.57 | 2.35 | 8.92 | 3.69 | 3.54 | 8.04 | 21.8 | 4.59 | 65 | 
3 | CC(=O)O/C=C(/C=C/OC(C)=O)C(C/C=C(\C)C#CC=C(C)C)OC(C)=O (stereo not given) | > 100 | > 100 | 42.4 | > 100 | > 100 | > 100 | > 100 | > 100 | > 100 |  |  |  |  |  |  |  |  |  |  | 
4 | COc1ccc2cc(C(=O)/C=C/c3cc(OC)c(OC)c(OC)c3)ccc2c1 | > 50 |  | 20.9 | 46.4 | 15.7 | 9.48 | 5.73 | 11.2 |  | 13 |  | 12.5 | 7.61 | 1.68 | 1.27 | 1.77 |  | 1.02 | 15.8 | 5.34
5 | COc1cc(CCc2ccc(OCCN(C)C)cc2)cc(OC)c1OC | > 100 |  | > 100 |  | > 100 | > 100 | > 100 |  | > 100 |  |  |  |  |  |  |  |  |  |  | 
6 | Cc1ccc(-[n+]2c3cc(N)c(C)cc3nc3cc(C)c(Nc4ccccc4)cc32)cc1 | 0.181 | 0.538 | 0.482 | 1.62 | 0.644 |  |  |  | 0.952 | 0.0646 | 0.235 | 0.258 | 0.2 |  |  |  | 0.242 |  |  | 0.102
7 | Cc1nc2c(nc1C)C(=O)c1cc(O)ccc1C2=O | > 100 | > 100 | > 67.3 | > 100 | > 100 | > 100 | > 100 | > 100 | > 78 |  |  |  |  |  |  |  |  |  |  | 
8 | Cn1c(=O)nc2n(-c3ccc(Cl)cc3)c3ccc(Cl)cc3nc-2c1=O | 19 | 16.9 | 18.9 | > 100 | 54.7 |  | 33.7 | 8.65 | 14.5 |  |  |  |  |  |  |  |  |  |  | 
9 | C=C1C(=O)O[C@H]2[C@H]1CC/C(Cn1cc(CNC(=O)Cc3cn(C(=O)c4ccc(Cl)cc4)c4ccc(OC)cc34)nn1)=C\CC[C@@]1(C)O[C@@H]21 | 25.7 | 4.18 |  | 32.9 | 3.02 | 3.55 | 13.2 | 6.7 | 3.39 | 5.78 | 2.01 | 16.1 | 1.59 | 1.89 | 3.86 | 2.58 | 1.75 | 1.58 | 3.12 | 
